Reference: patent publication US10017453B2, “Pharmaceutically acceptable salts of fatty acids” (Dignity Sciences Limited, priority 2013, dated 2018)
≈ marks a conversion by molar mass, not a printed value.

Assays:
[1] = Qualitative solubility observations of the salts; type: physicochemical
Description: An alternative method to prepare 15-HETrE sodium salt by slurrying and avoid need for rotary evaporation could not be found. […] Scale up and characterization was completed for 15-HETrE sodium salt using rotary evaporation from 10% aqueous EtOH, then EtOH. […] Purity as measured by UPLC analysis was ˜81%.
Products of each of the Reactions were white in appearance. Filtration was carried out with a sintered funnel (no. 3, 10 mm diameter) under mild vacuum. Some filter cake products were yellow in appearance. The first ˜200 μL of filtrate were transferred into an HPLC vial. Filtration of the remaining reaction mixture (alternating between high and medium vacuum) yielded a filter cake that was transferred to a vacuum chamber and dried overnight before being stored in a freezer.

[2] = Chemical stability at ambient temperature under vacuum for 8 days; type: physicochemical
Source text: Twenty four co-formers and acids were used to screen for stable forms of 15-HETrE but most yielded oils or gels. Salts with improved handling properties were isolated from the screen: sodium, ornithine, lysine, meglumine and piperazine, but all were poorly crystalline.
Properties of 15-HETrE salts prepared according to Examples 4-7 were compared against each other and against 15-HETrE free acid API.

[3] = Storage stability up to 24 weeks, free acid versus lysine salt (FIG. 28); type: physicochemical
Description: The 15-HETrE-lysine salt is stable at 20° C. and 40% humidity as well as at 40° C. and 75% humidity, making the lysine salt useful for pharmaceutical applications. 15-HETrE lysine salt was prepared on a larger scale for the crystallization screen as a white powder.

[4] = Reslurry of 15-(S)-HETrE lysine salt in ethyl acetate (impurity profile, NMR ratio); type: physicochemical
Description: An experiment was conducted to determine if the ratio of 15-(S)-HETrE to lysine would change after exposure to ethyl acetate. 15-(S)-HETrE lysine salt (100 mg) was suspended in HPLC grade ethyl acetate (1 mL) and stirred vigorously overnight at room temperature. The suspension was then filtered as described in previous examples. The impurity profiles of the starting 15-(S)-HETrE lysine salt (“before slurry”) and the slurried, filtered salt (“after reslurry”) are shown in Table 25.
NMR spectroscopy confirmed no change in the ratio of 15-(S)-HETrE-to-lysine ratio.

[5] = 8 Day Stability 40/75% RH of solids from the salt/cocrystal screen; type: physicochemical; details: 8 days
[6] = Dynamic vapor sorption (DVS) analysis; type: physicochemical; details: for Hygroscopicity according to the European Pharmacopeia classification: DVS
Source text: Post DVS XRPD analysis was not conducted as the material deliquesced.

[7] = Solvent-induced degradation of 15-(S)-HETrE lysine salt (ethyl acetate or methanol, overnight, UPLC); type: physicochemical
Description: An experiment to determine the degradation of 15-(S)-HETrE lysine salt, if any, when contacted with ethyl acetate or methanol. 15-(S)-HETrE lysine salt (100 mg) was dissolved in solvent (1 mL) and stirred overnight.

[8] = ambient temperature; probably due to uptake of moisture
[9] = Degradation of 15-(S)-HETrE on exposure to isopropyl acetate (overnight, UPLC); type: physicochemical
Description: An experiment was conducted to examine whether any degradation would be observed upon exposure of 15-(S)-HETrE to isopropyl acetate. 15-(S)-HETrE (100 mg) was dissolved in isopropyl acetate (1 mL) and stirred overnight. This was sampled directly for UPLC analysis (Table 39).

[10] = Solubility screen of as-received 15-HETrE (aliquot addition method); type: physicochemical; details: for solubility: organic solvent or mixture, estimated, read-out: Solubility Range
Source text: This is believed to be due to degradation of 15-HETrE, therefore HFIPA was not used in any further studies of 15-HETrE.

[11] = after reslurry in ethyl acetate, overnight, room temperature
[12] = in ethyl acetate, stirred overnight
[13] = original salt, before solvent contact
[14] = before exposure to isopropyl acetate
[15] = in isopropyl acetate, stirred overnight

For `CCCCCC(O)/C=C/C=C\C/C=C\CCCCCCC(=O)O.NCCCC[C@H](N)C(=O)O` (stereo not shown) [15-HETrE lysine salt, 15-Hydroxy-eicosa-8(Z),11(Z),13(E)-trienoic acid lysine salt], the solubility ([1]; DMSO) was “insoluble”, the solubility ([1]; chloroform) was “insoluble” and the solubility ([1]; water) was “dissolves readily”. The Chemical stability [2] was “chemically stable”, the Storage stability ([3]; 20° C. and 40% humidity) was “stable” and the Storage stability ([3]; 40° C. and 75% humidity) was “stable”. For the same compound, the “HETrE (RRT 1) in impurity profile” value [4, 11] was 95.69, the “IMP 1 (RRT 0.62) in impurity profile” value [4, 11] was 0.16 and the “IMP 2 (RRT 0.64) in impurity profile” value [4, 11] was 0.39. The “IMP 3 (RRT 0.69) in impurity profile” value [4, 11] was 0.16, the “IMP 4 (RRT 0.91) in impurity profile” value [4, 11] was 1.08 and the “IMP 5 (RRT 1.03) in impurity profile” value [4, 11] was 0.07. For the same compound, the “IMP 6 (RRT 1.1) in impurity profile” value [4, 11] was 1.47, the “IMP 7 (RRT 1.75) in impurity profile” value [4, 11] was 0.11 and the “HETrE (RRT 1) in impurity profile” value ([4]; before reslurry) was 96.66. The “IMP 1 (RRT 0.62) in impurity profile” value ([4]; before reslurry) was 0.04, the “IMP 2 (RRT 0.64) in impurity profile” value ([4]; before reslurry) was 0.09 and the “IMP 3 (RRT 0.69) in impurity profile” value ([4]; before reslurry) was 0.11. For the same compound, the “IMP 4 (RRT 0.91) in impurity profile” value ([4]; before reslurry) was 1.01, the “IMP 5 (RRT 1.03) in impurity profile” value ([4]; before reslurry) was 0.15 and the “IMP 6 (RRT 1.1) in impurity profile” value ([4]; before reslurry) was 1.39. For the same compound, the “IMP 7 (RRT 1.75) in impurity profile” value ([4]; before reslurry) was 0.26, the “Change in 15-(S)-HETrE-to-lysine ratio after reslurry” value ([4]; ethyl acetate, overnight, room temperature, NMR) was “no change” and the “8 Day Stability 40/75% RH” value [5] was 97% purity. For the same compound, the “Hygroscopicity according to the European Pharmacopeia classification” value [6] was “hygroscopic”, the DVS behaviour ([6]; above 80% RH) was “deliquesced” and the DVS weight gain ([6]; below 70% RH) was “less than 1%”. The “DVS additional weight gain” value ([6]; between 70-80% RH) was 1%, the “HETrE (RRT 1) peak area” value [7, 12] was 94.20% and the “IMP 1 (RRT 0.62) peak area” value [7, 12] was 0.05%. The “IMP 2 (RRT 0.64) peak area” value [7, 12] was 0.86%, the “IMP 3 (RRT 0.69) peak area” value [7, 12] was 0.96% and the “IMP 4 (RRT 0.91) peak area” value [7, 12] was 1.30%. For the same compound, the “IMP 5 (RRT 1.03) peak area” value [7, 12] was 0.29%, the “IMP 6 (RRT 1.1) peak area” value [7, 12] was 1.35% and the “IMP 7 (RRT 1.75) peak area” value [7, 12] was 0.14%. For the same compound, the “HETrE (RRT 1) peak area” value ([7]; in methanol, stirred overnight) was 95.40%, the “IMP 1 (RRT 0.62) peak area” value ([7]; in methanol, stirred overnight) was 0.03% and the “IMP 2 (RRT 0.64) peak area” value ([7]; in methanol, stirred overnight) was 0.24%. The “IMP 3 (RRT 0.69) peak area” value ([7]; in methanol, stirred overnight) was 0.45%, the “IMP 4 (RRT 0.91) peak area” value ([7]; in methanol, stirred overnight) was 1.16% and the “IMP 5 (RRT 1.03) peak area” value ([7]; in methanol, stirred overnight) was 0.13%. The “IMP 6 (RRT 1.1) peak area” value ([7]; in methanol, stirred overnight) was 1.34%, the “IMP 7 (RRT 1.75) peak area” value ([7]; in methanol, stirred overnight) was 0.31% and the “HETrE (RRT 1) peak area” value [7, 13] was 95.67%. The “IMP 1 (RRT 0.62) peak area” value [7, 13] was 0.20%, the “IMP 2 (RRT 0.64) peak area” value [7, 13] was 0.12% and the “IMP 3 (RRT 0.69) peak area” value [7, 13] was 0.27%. For the same compound, the “IMP 4 (RRT 0.91) peak area” value [7, 13] was 1.30%, the “IMP 5 (RRT 1.03) peak area” value [7, 13] was 0% and the “IMP 6 (RRT 1.1) peak area” value [7, 13] was 1.44%. For the same compound, the “IMP 7 (RRT 1.75) peak area” value [7, 13] was 0.55%.

In the case of `C1CNCCN1.CCCCCC(O)/C=C/C=C\C/C=C\CCCCCCC(=O)O` (stereo not shown) [15-HETrE piperazine salt, 15-Hydroxy-eicosa-8(Z),11(Z),13(E)-trienoic acid piperazine salt], the “Behaviour on exposure to air” value [8] is reported as “appears to flow on exposure to air at ambient temperature”.

For `CCCCCC(O)/C=C/C=C\C/C=C\CCCCCCC(=O)[O-].[Na+]` (stereo not shown) [15-HETrE sodium salt, 15-Hydroxy-eicosa-8(Z),11(Z),13(E)-trienoic acid sodium salt], the solubility ([1]; water used in the slurry preparation, salt did not precipitate) was “highly soluble”, the “8 Day Stability 40/75% RH” value [5] was 95% purity and the “Hygroscopicity according to the European Pharmacopeia classification” value [6] was “very hygroscopic”. For the same compound, the DVS weight gain ([6]; below 40% RH) was “less than 1%” and the DVS behaviour ([6]; high RH) was “deliquesced”.

In the case of `CCCCCC(O)/C=C/C=C\C/C=C\CCCCCCC(=O)O` (stereo not shown) [15-HETrE, 15-Hydroxy-eicosa-8(Z),11(Z),13(E)-trienoic acid], the “HETrE (RRT 1) peak area” value [9, 14] is reported as 91.38%, the “IMP 1 (RRT 0.62) peak area” value [9, 14] is reported as 0.12% and the “IMP 2 (RRT 0.64) peak area” value [9, 14] is reported as 0.51%. The “IMP 3 (RRT 0.66) peak area” value [9, 14] was 0.89%, the “IMP 4 (RRT 0.69) peak area” value [9, 14] was 0.13% and the “IMP 5 (RRT 0.72) peak area” value [9, 14] was 1.29%. For the same compound, the “IMP 6 (RRT 0.85) peak area” value [9, 14] was 0.16%, the “IMP 7 (RRT 0.91) peak area” value [9, 14] was 1.17% and the “IMP 8 (RRT 0.98) peak area” value [9, 14] was 0.29%. The “IMP 9 (RRT 1.03) peak area” value [9, 14] was 0.18%, the “IMP 10 (RRT 1.1) peak area” value [9, 14] was 1.41% and the “IMP 11 (RRT 1.75) peak area” value [9, 14] was 0.88%. The “HETrE (RRT 1) peak area” value [9, 15] was 85.56%, the “IMP 1 (RRT 0.62) peak area” value [9, 15] was 0.22% and the “IMP 2 (RRT 0.64) peak area” value [9, 15] was 1.48%. The “IMP 3 (RRT 0.66) peak area” value [9, 15] was 1.47%, the “IMP 4 (RRT 0.69) peak area” value [9, 15] was 0.19% and the “IMP 5 (RRT 0.72) peak area” value [9, 15] was 3.02%. The “IMP 6 (RRT 0.85) peak area” value [9, 15] was 0.43%, the “IMP 7 (RRT 0.91) peak area” value [9, 15] was 1.56% and the “IMP 8 (RRT 0.98) peak area” value [9, 15] was 0.62%. The “IMP 9 (RRT 1.03) peak area” value [9, 15] was 0.28%, the “IMP 10 (RRT 1.1) peak area” value [9, 15] was 1.79% and the “IMP 11 (RRT 1.75) peak area” value [9, 15] was 1.14%. For the same compound, the “Stability when combined with HFIPA” value ([10]; 1,1,1,3,3,3-hexafluoroisopropyl acrylate (HFIPA), believed to be degradation) was “rapid color change from clear, colorless to blood red to deep purple/black”, the solubility ([10]; Acetone) was 3120 to 9360 µg/mL (≈ 9.67 to 29 mM) and the solubility ([10]; Acetonitrile (ACN)) was 930 to 2780 µg/mL (≈ 2.88 to 8.62 mM). It also gave a solubility ([10]; DCM) of 1170 to 3520 µg/mL (≈ 3.63 to 10.9 mM), a solubility ([10]; DMF) of 1230 to 3680 µg/mL (≈ 3.81 to 11.4 mM) and a solubility ([10]; Dioxane) of 1660 to 4980 µg/mL (≈ 5.15 to 15.4 mM). It also gave a solubility ([10]; Ethanol (EtOH)) of 1260 to 3780 µg/mL (≈ 3.91 to 11.7 mM), a solubility ([10]; Ethyl acetate (EtOAc)) of 1890 to 5660 µg/mL (≈ 5.86 to 17.6 mM) and a solubility ([10]; Methanol (MeOH)) of 2120 to 6360 µg/mL (≈ 6.57 to 19.7 mM). For the same compound, the solubility ([10]; THF) was 3320 to 9960 µg/mL (≈ 10.3 to 30.9 mM), the Miscibility in solvents ([10]; ten solvents tested) was “miscible in all solvents tested” and the Storage stability ([3]; stored up to 24 weeks at −20° C., 2-8° C., 25° C.) was “unstable and degrades at all conditions with the exception of −20 °C”.
